Data on three compounds can be found in ChEMBL document CHEMBL5034035, “Discovery of an Oxycyclohexyl Acid Lysophosphatidic Acid Receptor 1 (LPA1) Antagonist BMS-986278 for the Treatment of Pulmonary Fibrotic Diseases” (J Med Chem, 2021).

Data set [1] is described as follows: Drug metabolism in human hepatocytes assessed as carbamate hydrolytic product formation at 10 uM measured after 2 hrs by LC/UV/MS analysis. It is filed as ADME, cell-based, Hepatocyte.
The nature of data set [2]: Aqueous solubility of compound at pH 1. It is filed as physicochemical.
The target in data set [3] is CYP2B6 (Homo sapiens, UniProt P20813). Nature of the data set: Induction of CYP2B6 in human hepatocytes. Format: ADME, cell-based, Hepatocyte.
The target of data set [4] is T1, Cytochrome P450 1A2 (Homo sapiens, UniProt P05177).
T1 sequence (P05177 whole entry): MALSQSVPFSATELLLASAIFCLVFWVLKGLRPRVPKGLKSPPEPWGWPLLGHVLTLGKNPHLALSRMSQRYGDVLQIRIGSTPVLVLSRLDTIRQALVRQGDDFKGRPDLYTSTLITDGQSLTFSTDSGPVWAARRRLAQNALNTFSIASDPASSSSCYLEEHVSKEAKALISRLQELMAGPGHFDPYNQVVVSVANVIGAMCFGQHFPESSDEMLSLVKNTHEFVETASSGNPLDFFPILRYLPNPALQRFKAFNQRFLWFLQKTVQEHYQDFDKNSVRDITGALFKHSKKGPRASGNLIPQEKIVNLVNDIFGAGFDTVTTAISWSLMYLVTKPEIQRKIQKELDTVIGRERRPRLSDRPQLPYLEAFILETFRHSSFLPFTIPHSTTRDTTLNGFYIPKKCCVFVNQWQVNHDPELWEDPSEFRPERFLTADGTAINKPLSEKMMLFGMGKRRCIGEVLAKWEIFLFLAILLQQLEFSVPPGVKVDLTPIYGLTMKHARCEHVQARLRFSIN
Description: Inhibition of CYP1A2 (unknown origin). It is filed as ADME.

Data set [5] in a line: Volume of distribution at steady state in CD-1 mouse at 3 mg/kg, po or 1 mg/kg, iv measured up to 24 hrs by LC-MS/MS analysis. Format: ADME, organism-based. Particulars: in vivo, read-out: Vdss.
Data set [6] is described as follows: Drug metabolism in monkey hepatocytes assessed as formation of acyl glucuronides metabolites at 10 uM measured after 2 hrs by LC/UV/MS analysis. It is filed as ADME, cell-based, Macaca mulatta, Hepatocyte. The note with it: rhesus monkey.
A short description of data set [7]: Half life in mouse liver microsomes at 10 uM measured after 120 mins. Format: ADME, Microsome. (In general: Microsomes from liver hold many membrane-bound enzymes, among them those of drug oxidation.)
Data set [8] has as its target CYP3A4 (Homo sapiens, UniProt P08684). Description: Induction of CYP3A4 in human hepatocytes. It is filed as ADME, cell-based, Hepatocyte.
For data set [9], the target named is CYP2C9 (Homo sapiens, UniProt P11712). Nature of the data set: Induction of CYP2C9 in human hepatocytes. Format: ADME, cell-based, Hepatocyte.
Data set [10] has as its target T2, ATP-binding cassette sub-family C member 4 (Homo sapiens, UniProt O15439).
T2 sequence (O15439 whole entry): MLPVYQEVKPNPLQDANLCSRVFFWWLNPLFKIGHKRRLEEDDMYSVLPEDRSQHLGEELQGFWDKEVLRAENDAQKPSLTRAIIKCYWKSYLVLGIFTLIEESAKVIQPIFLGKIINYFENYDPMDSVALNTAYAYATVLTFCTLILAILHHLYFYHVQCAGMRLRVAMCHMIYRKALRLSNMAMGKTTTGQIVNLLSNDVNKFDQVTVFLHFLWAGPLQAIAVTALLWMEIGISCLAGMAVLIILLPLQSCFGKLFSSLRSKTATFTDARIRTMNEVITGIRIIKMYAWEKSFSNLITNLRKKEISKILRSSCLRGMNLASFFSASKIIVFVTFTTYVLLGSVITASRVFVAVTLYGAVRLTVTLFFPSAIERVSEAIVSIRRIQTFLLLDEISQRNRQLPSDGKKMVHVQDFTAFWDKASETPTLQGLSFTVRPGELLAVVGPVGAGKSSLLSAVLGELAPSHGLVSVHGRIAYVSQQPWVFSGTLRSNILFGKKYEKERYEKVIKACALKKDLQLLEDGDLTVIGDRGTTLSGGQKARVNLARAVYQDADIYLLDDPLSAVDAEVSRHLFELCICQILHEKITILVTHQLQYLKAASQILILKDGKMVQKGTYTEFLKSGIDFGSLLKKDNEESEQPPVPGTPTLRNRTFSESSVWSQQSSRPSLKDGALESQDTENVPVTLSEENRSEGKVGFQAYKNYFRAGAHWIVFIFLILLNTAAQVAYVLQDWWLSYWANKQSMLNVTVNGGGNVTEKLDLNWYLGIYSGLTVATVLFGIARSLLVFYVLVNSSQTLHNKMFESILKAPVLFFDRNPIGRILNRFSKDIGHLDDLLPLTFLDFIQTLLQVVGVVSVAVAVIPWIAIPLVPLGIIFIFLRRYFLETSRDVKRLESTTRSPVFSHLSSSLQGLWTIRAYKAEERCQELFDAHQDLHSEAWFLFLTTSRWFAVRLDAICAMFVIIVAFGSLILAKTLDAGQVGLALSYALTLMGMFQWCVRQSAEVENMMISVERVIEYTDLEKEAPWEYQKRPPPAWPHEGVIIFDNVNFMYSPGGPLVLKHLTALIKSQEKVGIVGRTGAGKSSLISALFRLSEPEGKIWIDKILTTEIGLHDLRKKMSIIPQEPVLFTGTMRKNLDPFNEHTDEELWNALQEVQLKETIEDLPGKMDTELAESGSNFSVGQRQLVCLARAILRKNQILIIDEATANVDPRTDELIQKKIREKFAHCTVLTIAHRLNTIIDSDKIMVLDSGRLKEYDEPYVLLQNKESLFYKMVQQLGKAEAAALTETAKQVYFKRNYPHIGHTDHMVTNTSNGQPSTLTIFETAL
Description: Inhibition of MRP4 (unknown origin).

Data set [11] is described as follows: Plasma clearance in CD-1 mouse at 3 mg/kg, po or 1 mg/kg, iv measured up to 24 hrs by LC-MS/MS analysis. It is filed as ADME, organism-based.
Data set [12] can be described thus: Aqueous solubility of compound at pH 7.4. It is filed as physicochemical.
In data set [13] the target is Cytochrome P450 2C19 (Homo sapiens, UniProt P33261). Nature of the data set: Inhibition of CYP2C19 (unknown origin). Format: ADME.
A short description of data set [14]: Protein binding in human plasma assessed as free fraction at 3 mg/kg, po or 1 mg/kg, iv measured up to 24 hrs by LC-MS/MS analysis. Format: ADME, organism-based.
Data set [15] can be described thus: Elimination half life in Sprague-Dawley rat at 3 mg/kg, po or 1 mg/kg, iv measured up to 24 hrs by LC-MS/MS analysis. It is filed as ADME, organism-based. Particulars: in vivo, read-out: beta t1/2 (converted).
The nature of data set [16]: Volume of distribution at steady state in cynomolgus monkey at 3 mg/kg, po or 1 mg/kg, iv measured up to 24 hrs by LC-MS/MS analysis. Particulars: in vivo, read-out: Vdss. It is filed as ADME, organism-based, Macaca fascicularis.
A short description of data set [17]: Plasma clearance in Sprague-Dawley rat at 3 mg/kg, po or 1 mg/kg, iv measured up to 24 hrs by LC-MS/MS analysis. Format: ADME, organism-based.
Data set [18] is described as follows: Lipophilicity, log D of compound at pH 6.5 by shake-flask method. It is filed as physicochemical. Particulars: buffer.
Data set [19] is described as follows: Volume of distribution at steady state in Sprague-Dawley rat at 3 mg/kg, po or 1 mg/kg, iv measured up to 24 hrs by LC-MS/MS analysis. It is filed as ADME, organism-based. Particulars: in vivo, read-out: Vdss.
The target in data set [20] is Lysophosphatidic acid receptor 1 (Mus musculus) (UniProt P61793). Nature of the data set: Antagonist activity at mouse LPA1 receptor expressed in CHO cells assessed as inhibition of LPA stimulated calcium flux incubated for 20 mins followed by LPA stimulation and measured for 90 seconds. Format: functional, cell-based. The note with it: filed as antagonist. (Calcium assays in cells follow changes in intracellular calcium, usually with a dye or a luminescent sensor.)

In brackets after ≈: the same amount, converted by molar mass. Bounds are passed on as bounds.

Chain of CYP3A4 (P08684 whole entry): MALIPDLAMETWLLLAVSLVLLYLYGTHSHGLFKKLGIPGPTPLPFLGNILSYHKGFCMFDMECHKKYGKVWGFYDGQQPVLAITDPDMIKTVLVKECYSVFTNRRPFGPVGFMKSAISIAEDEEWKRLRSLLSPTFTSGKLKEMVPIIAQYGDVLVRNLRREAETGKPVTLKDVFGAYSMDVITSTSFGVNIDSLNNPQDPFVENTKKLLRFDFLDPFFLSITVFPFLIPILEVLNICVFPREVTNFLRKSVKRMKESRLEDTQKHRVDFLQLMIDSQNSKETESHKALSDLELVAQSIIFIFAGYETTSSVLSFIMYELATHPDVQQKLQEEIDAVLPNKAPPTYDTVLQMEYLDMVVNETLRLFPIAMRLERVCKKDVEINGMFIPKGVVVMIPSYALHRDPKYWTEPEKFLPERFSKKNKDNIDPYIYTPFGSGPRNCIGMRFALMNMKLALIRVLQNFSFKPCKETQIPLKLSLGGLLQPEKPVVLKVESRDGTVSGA
Chain of CYP2C9 (P11712 whole entry): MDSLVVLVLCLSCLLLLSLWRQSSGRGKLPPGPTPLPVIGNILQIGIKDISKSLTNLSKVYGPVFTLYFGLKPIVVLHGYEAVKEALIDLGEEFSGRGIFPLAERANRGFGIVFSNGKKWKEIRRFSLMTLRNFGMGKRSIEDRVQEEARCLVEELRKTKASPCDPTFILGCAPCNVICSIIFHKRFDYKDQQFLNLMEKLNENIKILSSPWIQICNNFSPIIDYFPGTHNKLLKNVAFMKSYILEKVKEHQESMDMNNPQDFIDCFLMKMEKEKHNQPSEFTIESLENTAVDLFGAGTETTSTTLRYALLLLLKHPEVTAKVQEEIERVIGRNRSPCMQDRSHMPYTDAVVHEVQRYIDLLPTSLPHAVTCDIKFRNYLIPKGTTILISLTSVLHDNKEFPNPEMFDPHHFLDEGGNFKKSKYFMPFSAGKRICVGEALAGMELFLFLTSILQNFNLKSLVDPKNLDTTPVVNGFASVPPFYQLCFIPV
Chain of Cytochrome P450 2C19 (P33261 whole entry): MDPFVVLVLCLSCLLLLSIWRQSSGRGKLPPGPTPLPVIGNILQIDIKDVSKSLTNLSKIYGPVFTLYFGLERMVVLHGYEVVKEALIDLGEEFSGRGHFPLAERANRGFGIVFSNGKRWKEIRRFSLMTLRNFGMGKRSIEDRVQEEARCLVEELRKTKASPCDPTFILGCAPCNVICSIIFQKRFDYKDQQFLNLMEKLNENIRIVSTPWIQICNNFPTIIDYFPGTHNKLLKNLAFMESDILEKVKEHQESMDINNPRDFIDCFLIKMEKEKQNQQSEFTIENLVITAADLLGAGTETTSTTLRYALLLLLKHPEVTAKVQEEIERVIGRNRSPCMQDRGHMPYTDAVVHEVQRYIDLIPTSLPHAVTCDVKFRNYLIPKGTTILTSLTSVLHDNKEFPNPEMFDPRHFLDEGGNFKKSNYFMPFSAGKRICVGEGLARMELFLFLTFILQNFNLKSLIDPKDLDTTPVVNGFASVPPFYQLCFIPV
Chain of CYP2B6 (P20813 whole entry): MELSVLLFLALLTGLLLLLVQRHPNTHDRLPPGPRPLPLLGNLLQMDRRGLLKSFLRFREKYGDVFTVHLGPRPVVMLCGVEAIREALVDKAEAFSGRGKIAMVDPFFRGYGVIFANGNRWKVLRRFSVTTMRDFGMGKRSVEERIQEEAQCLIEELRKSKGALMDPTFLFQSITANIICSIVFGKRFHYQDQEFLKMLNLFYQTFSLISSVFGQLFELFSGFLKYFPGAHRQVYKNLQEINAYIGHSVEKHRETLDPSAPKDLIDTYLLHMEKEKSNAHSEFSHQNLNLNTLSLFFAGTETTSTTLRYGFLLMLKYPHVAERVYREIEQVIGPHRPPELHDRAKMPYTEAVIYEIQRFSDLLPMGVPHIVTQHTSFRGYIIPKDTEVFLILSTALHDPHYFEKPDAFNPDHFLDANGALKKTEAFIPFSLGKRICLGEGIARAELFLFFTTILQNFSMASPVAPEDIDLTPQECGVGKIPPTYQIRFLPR
Chain of Lysophosphatidic acid receptor 1 (Mus musculus) (P61793 whole entry): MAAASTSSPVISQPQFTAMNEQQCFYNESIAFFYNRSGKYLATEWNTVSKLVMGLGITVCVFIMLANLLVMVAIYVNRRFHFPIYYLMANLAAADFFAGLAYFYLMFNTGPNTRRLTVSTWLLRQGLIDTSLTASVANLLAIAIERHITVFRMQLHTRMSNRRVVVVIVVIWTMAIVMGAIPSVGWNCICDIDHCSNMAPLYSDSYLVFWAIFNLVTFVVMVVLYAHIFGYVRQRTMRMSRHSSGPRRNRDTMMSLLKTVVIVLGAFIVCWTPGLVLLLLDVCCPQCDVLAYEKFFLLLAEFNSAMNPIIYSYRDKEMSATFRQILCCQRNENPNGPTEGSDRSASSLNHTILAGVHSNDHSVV

The term solubility denotes the concentration that dissolves in the medium under given conditions. In general, IC50 refers to the concentration at which inhibition is half-maximal. Usually fraction unbound stands for the share of the substance not bound to proteins or other matrix. For orientation: logD means the decadic logarithm of the distribution of all forms, ionised or not, between an organic phase and buffer at a given pH. `Cc1nc(-c2nnn(C)c2COC(=O)N(C)CC2CCC2)ccc1O[C@H]1CCC[C@H](C(=O)O)C1`: the Drug metabolism result in data set [1] is on record as “Metabolite_Notdetected”; in data set [6], “Metabolite_Detected”. The solubility worked out at 389 µg/mL (≈ 825 µM) in data set [2] and 705 µg/mL (≈ 1500 µM) in data set [12]. Further, the IC50 in data set [3] was greater than 50 µM; in [4], greater than 40 µM; in [8] it was greater than 50 µM; in data set [9], greater than 50 µM; in data set [10], 16 µM; in [13], greater than 40 µM. The Vd in [5] stood at 14.6 L/kg; in data set [16], 6.3 L/kg; in data set [19] it was 9 L/kg. This compound also returned a half-life at 10 µM in data set [7] greater than 2 h. Further, the clearance in [11] amounted to 118 mL/min/kg; in [17], 104 mL/min/kg. In [14], the fraction unbound at 24 h was found to be 0.033. For the same compound, the half-life in data set [15] is 2 h. The logD in [18] was determined as 2.3.

Usually Kb stands for the equilibrium dissociation constant of an antagonist, usually derived from a functional assay. Consider `CCCN(C)C(=O)OCc1c(-c2ccc(O[C@H]3CCC[C@H](C(=O)O)C3)c(C)n2)nnn1C` [ADMILPARANT], for which the Drug metabolism result in [1] and in [6] was “Metabolite_Detected” in each case. Further, in data set [2], the solubility worked out at 2990 µg/mL (≈ 6710 µM). For the same compound, the IC50 in data set [4] was greater than 40 µM; in [8], greater than 50 µM; in data set [9], greater than 50 µM; in data set [10] it was 47 µM; in [13], greater than 40 µM. In addition, the Vd was determined as 5.5 L/kg in data set [5], 1.6 L/kg in data set [16] and 3.5 L/kg in data set [19]. In data set [7], this compound returned a half-life at 10 µM greater than 2 h. Further, the clearance in data set [11] amounted to 37 mL/min/kg; in data set [17], 15 mL/min/kg. Also, in [14], the free fraction (fraction unbound) at 24 h came out at 0.056. For the same compound, in data set [15], the half-life was 4.5 h. The Kb in [20] amounted to 0.004 µM. The same compound returned a logD in [18] of 1.95.

`Cc1noc(-c2ccc(-c3ccc(C4(C(=O)O)CC4)cc3)cc2)c1NC(=O)O[C@H](C)c1ccccc1` [BMS-986020]: the solubility in data set [2] is less than 1 µg/mL; in data set [12], 11 µg/mL (≈ 22.8 µM). Further, the IC50 is greater than 50 µM in [3]; greater than 50 µM in [4]; greater than 50 µM in [8]; greater than 50 µM in [9]; 6.2 µM in data set [10]; greater than 50 µM in data set [13]. In data set [7], this compound showed a half-life at 10 µM of 1.52 h. The fraction unbound at 24 h in [14] was 0.002. Moreover, the Kb in data set [20] was 0.0037 µM. Further, the logD in data set [18] was 3.6.
